{"source": "patent US7479377B2", "about": "“Genetic construct intracellular monitoring system” (DiscoveRx Corporation, priority 2001, dated 2009)", "key": {"PL-PPARγ1": {"system": "PL-PPARγ1", "test": "Proteosomal degradation of transiently expressed PL-PPAR (ED-EA complementation)", "format": "cell-based, human", "conditions": "for Amount of PL-PPARγ1: MG132 20 μM", "excerpt": "pcDNA3.1-PL-PPAR construct was obtained in the two rounds of the cloning procedure. In the first round, the ED (55-mer) sequence was inserted into NheI and KpnI sites of the pcDNA3.1/zeo vector (Invitrogen). PPARg1 gene was obtained by PCR amplification of the human placenta cDNA library and in the second round of cloning was inserted into KpnI and NotI sites of the vector.\nProteosomal degradation of transiently expressed PL-PPAR protein was detected in NIH3T3, ECV304 and HeLa cells. Cells were transfected with pcDNA3.1-PL-PPAR and 24 hours after transfection medium was removed and cells were treated either with the vehicle (DMSO) or MG132 (proteosome inhibitor). Transfections were carried out in 6-well plates as described above. Cells were washed with PBS buffer, lysed in 480 uL of lysis buffer containing CHAPS (a mild detergent) and tested for ED-EA complementation in triplicates. Thirty microliters of the cell lysates were placed in the wells of 384-well plates. After that, 10 uL of EA solution were added and reaction of complementation was carried out for one hour at room temperature. Fifteen microliters of chemiluminescent substrate (0.4 mM Galacton-Star (Applied Biosystems, Bedford, Mass.) and 2 mg/ml Emerald II substrate (Applied Biosystems, Bedford, Mass.)) were added to the wells and the chemiluminescent signals were read using Chemiluminescent reader (Packard LumiCount, Packard Biosystems) (FIGS. 10A, 10B and 10C).\nPL-PPAR expression levels were tested in the presence of increasing concentrations of MG132 (FIG. 11). The experiment was done as described above, except that indicated concentrations of MG132 were employed."}, "endogenous IL-1 receptor": {"target": "T1, endogenous IL-1 receptor (Homo sapiens, UniProt P14778)", "T1 construct": "endogenous in cells; host or cells: HeLa cells transiently transfected with pCMV-IkB-ED or pCMV-IkB M-ED as reporter", "T1 sequence (P14778 18-569)": "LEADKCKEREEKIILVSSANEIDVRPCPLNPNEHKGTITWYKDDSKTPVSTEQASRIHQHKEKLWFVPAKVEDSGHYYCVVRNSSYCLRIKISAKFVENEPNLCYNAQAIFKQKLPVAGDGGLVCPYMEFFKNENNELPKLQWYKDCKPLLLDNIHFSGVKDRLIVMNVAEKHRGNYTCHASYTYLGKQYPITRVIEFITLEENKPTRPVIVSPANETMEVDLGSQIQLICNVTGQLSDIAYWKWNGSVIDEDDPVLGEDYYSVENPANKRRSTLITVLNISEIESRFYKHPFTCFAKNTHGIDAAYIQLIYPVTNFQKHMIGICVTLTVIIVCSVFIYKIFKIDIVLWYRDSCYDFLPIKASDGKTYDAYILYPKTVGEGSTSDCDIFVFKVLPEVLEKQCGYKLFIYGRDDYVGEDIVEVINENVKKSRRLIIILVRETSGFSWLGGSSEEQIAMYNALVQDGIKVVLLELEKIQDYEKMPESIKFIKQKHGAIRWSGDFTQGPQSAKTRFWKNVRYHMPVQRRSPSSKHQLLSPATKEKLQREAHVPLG", "T1 sequence (Q9NPH3 21-570 partner)": "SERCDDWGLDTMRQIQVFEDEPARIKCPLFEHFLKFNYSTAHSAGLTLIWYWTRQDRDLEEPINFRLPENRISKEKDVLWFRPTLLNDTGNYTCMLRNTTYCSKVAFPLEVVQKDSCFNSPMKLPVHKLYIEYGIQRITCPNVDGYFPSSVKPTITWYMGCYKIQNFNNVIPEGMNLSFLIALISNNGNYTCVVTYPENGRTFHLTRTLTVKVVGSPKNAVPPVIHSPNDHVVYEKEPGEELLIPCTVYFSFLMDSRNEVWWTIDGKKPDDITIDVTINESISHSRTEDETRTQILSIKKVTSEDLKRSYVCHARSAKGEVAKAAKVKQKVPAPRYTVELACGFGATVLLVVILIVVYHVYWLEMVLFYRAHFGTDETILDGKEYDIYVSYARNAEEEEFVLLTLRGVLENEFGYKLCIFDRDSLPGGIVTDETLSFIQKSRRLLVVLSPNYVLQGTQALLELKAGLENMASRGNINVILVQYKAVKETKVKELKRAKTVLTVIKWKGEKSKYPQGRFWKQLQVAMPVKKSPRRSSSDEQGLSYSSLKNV", "test": "IL-1-induced IκB-ED degradation in HeLa cells", "format": "cell-based", "conditions": "IL-1 at various concentrations for 30 min", "protocol": "(§1) HeLa cells were seeded into 24 well plate 24 hr before transfection. 0.25 μg DNA was transfected into each well using Fugene6 (Roche) following manufacture's protocol. 24 hr after transfection, cells were subjected to treatment of TNFα (Sigma) at various concentrations for 30 min. Then the culture medium was removed, and cells were lysed in 90 μl of cell lysis buffer. […] Assay was performed in three replicates. The plate was incubated at room temperature for 30 min before addition of 15 μl chemiluminescence substrate. Plate was read 30 min after substrate addition. The untreated cells were normalized to 100% activity. […] In addition, the IκB-ED degradation was specifically linked to the upstream component activation. Also confirmed was that the IκB-ED degradation was dependent on IκB phosporylation at 32 and 36 residues, the same way as un-tagged IκB.\nIt has been reported that IL-1 activation of cells results in NF-κB pathway activation through the induced degradation of IκB. To confirm that the ED labeled IκB in cells was able to monitor IL-1 pathway activation, HeLa cells was transiently transfected with pCMV- IκB -ED or pCMV- IκB M-ED the same way as described above in 24 well plates. Cells were then treated with IL-1 (Sigma) at various concentrations for 30 min then assayed for ED activity."}, "IκB-ED": {"system": "IκB-ED", "test": "TNFα-induced IκB-ED degradation in HeLa cells (ED/EA complementation, chemiluminescence)", "format": "cell-based", "conditions": "TNFα at various concentrations for 30 min", "protocol": "For transient transfection, cells were seeded into 6 well plate one day before experiment. For each well, 3 μl of Fugene 6 (Roche, Ind.) was diluted into 100_μl of serum free medium, and then 1_μg of plasmid DNA was added. The mixture was incubated at room temperature for 15 min before addition into wells dropwise. The plate was then incubated at 37° C. till the assay.\nas §1"}, "[1]": {"target": "T2, human chemokine CCR3 receptor (Homo sapiens, UniProt P51677)", "T2 sequence (P51677 1-355)": "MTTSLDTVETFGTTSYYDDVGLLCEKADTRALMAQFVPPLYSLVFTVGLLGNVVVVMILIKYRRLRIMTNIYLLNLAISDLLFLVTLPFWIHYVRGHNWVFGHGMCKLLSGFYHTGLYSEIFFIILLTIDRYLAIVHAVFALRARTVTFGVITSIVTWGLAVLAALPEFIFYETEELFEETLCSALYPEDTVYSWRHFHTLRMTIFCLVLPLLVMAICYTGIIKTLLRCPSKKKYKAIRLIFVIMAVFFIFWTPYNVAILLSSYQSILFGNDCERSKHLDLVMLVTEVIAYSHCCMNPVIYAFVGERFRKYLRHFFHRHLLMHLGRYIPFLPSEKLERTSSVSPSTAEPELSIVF", "test": "CCR3 activation leads to IkB-PL degradation in CHO-K1 cells", "format": "cell-based", "conditions": "CHO-K1 cells expressing CCR3, transfected with PCMV-IkB-PL; 30 min; FIG. 16", "protocol": "CHO-K1 cells stably expressing human chemokine CCR3 receptor was obtained from Euroscreen. […] Cells were seeded in 6-well plates one day before transfection. PCMV-IkB-PL was transiently transfected into CHO MC4 cells using Fugene6 following manufacturer's protocol. […] (FIG. 16)."}, "[2]": {"system": "Hela cells stably expressing IkB-PL", "test": "Cell Titer-Glo cell viability assay of Hela-IkB cells with EGF", "format": "cell-based", "conditions": "0.5% FBS, serial dosage of rhEGF, 72 hours, FIG. 17", "protocol": "Hela cells stably expressing IkB-PL were used. To confirm the cells response to EGF, the cell viability assay was performed. Hela-IkB cells were seeded in DMEM with 0.5% FBS in 96 well plate with a density of 5000 cells per well, exposing to a serial dosage of rhEGF. 72 hours later, cell viability assay was performed using the Cell Titer-Glo luminescence Cell Viability assay kit (Promega). […] (FIG. 17)."}, "[3]": {"conditions": "HeLa cells transfected with pCMV-IκB M-ED"}, "[4]": {"conditions": "HeLa cells transfected with pCMV-IκB-ED"}}, "note": "Peptide text beside a SMILES is read from it. * marks the point of attachment. Cbz = O=C(OCc1ccccc1)*", "data": [{"compound": "CC(C)C[C@@H](C=O)NC(=O)[C@H](CC(C)C)NC(=O)[C@H](CC(C)C)NC(=O)OCc1ccccc1", "note": "[MG132] (Cbz-Leu-Leu-Leu-aldehyde)", "values": [{"measurement": "Amount of PL-PPARγ1", "setting": "PL-PPARγ1; ECV304 cells, FIG. 10B", "value": "enhancement of the amount of PL-PPARγ1"}, {"measurement": "Amount of PL-PPARγ1", "setting": "PL-PPARγ1; HeLa cells, FIG. 10C", "value": "enhancement of the amount of PL-PPARγ1"}, {"measurement": "Amount of PL-PPARγ1", "setting": "PL-PPARγ1; NIH3T3 cells, FIG. 10A", "value": "enhancement of the amount of PL-PPARγ1"}, {"measurement": "PL-PPAR expression level with increasing concentrations of MG132", "setting": "PL-PPARγ1; increasing concentrations of MG132, FIG. 11", "value": "Dose-Dependent Increase"}]}, {"compound": "IL-1", "values": [{"measurement": "Degradation of mutant IκB M-ED", "setting": "endogenous IL-1 receptor; [3]", "value": "resistant to IL-1 induced degradation"}, {"measurement": "IκB-ED activity", "setting": "endogenous IL-1 receptor; [4]", "value": "decreased upon IL-1 treatment in a dose dependent manner"}]}, {"compound": "TNFα", "values": [{"measurement": "ED activity of mutant IκB M-ED", "setting": "IκB-ED; [3]", "value": "did not show a dose dependent decrease of ED activity"}, {"measurement": "ED activity of IκB-ED (degradation of wild type IκB)", "setting": "IκB-ED; [4]", "value": "decrease the ED activity in a dose dependent manner"}]}, {"compound": "eotaxin", "values": [{"measurement": "IkB-PL degradation upon CCR3 activation", "setting": "[1]", "value": "activation of the chemokine receptor CCR3 leading to IkB-PL degradation"}]}, {"compound": "EGF (NSDSECPLSHDGYCLHDGVCMYIEALDKYACNCVVGYIGERCQYRDLKWWELR)", "values": [{"measurement": "Viable cell numbers", "setting": "[2]", "value": "responded to the EGF induction in a dosage dependent manner"}]}]}
